Reference: a melting point compilation (Tetko et al.; mined from patent text by program, amines drawn as free bases though some values may be those of a salt)

Row | SMILES | melting point [°C]
1 | CCOC(=O)c1cnc2n(c1=O)C(C)CCC2N(C)c1ccccc1 (centres undefined) | 175 to 178
2 | CCOC1CC2(C)C(CCC3C4CC=C(C(C)=O)C4(C)CC(=O)C32)CC1O (centres undefined) | 89 to 91
3 | O=NN(CCCl)C(=O)NC1(C(=O)Nc2nncs2)CCCC1 | 160
4 | CNC(=NS(C)(=O)=O)NCCSCc1nccc(NC(N)=NCC(F)(F)F)n1 | 148 to 149
5 | COC(=O)COc1ncccc1Oc1cc(N2C(=O)C=C(C(F)(F)F)CC2=O)c(F)cc1Cl | 75.3
6 | N#CC(Cl)CC(Cl)(Cl)C=O (centres undefined) | 49 to 50
7 | CCCN(CCC)C1CNc2c(cc(Br)cc2[N+](=O)[O-])C1 (centres undefined) | 88 to 91
8 | Cc1ccc([N+](=O)[O-])c(OC2CCOC2=O)c1 (centres undefined) | 68 to 70
9 | CC(=O)NN(C(C)=O)[C@@H]1c2cc(C#N)ccc2OC(C)(C)[C@H]1O (relative stereo) | 206 to 207
10 | CC(=Cc1ccc(O)c(Cl)c1)[N+](=O)[O-] | 91 to 93
11 | COC(Cn1cncn1)(c1ccc(F)cc1F)C(F)(F)SCCO (centres undefined) | 76 to 79
12 | CCOC(=O)C1=Cc2cc(-c3ccc(C(F)(F)F)cc3)ccc2OCC1 | 107 to 110
13 | COc1ccc(CNc2nc(CCC(=O)O)nc3sc4c(c23)CCCC4)cc1Cl | 135
14 | CC(C(=O)O)(c1ccc(OCc2ccc3ccccc3n2)cc1)c1ccc(OCc2ccc3ccccc3n2)cc1 | 208 to 210
15 | COC(=O)c1cc2cc(N)ccc2o1 | 112 to 113
16 | CN1c2ccccc2S(=O)(=O)c2cc(C=Cc3ccc(-c4ccc(C=Cc5ccc6c(c5)S(=O)(=O)c5ccccc5N6C)cc4)cc3)ccc21 | 360
17 | COC(=O)c1ccc(CN2N=C(c3ccc(OC)c(OC)c3)[C@@H]3CCCC[C@@H]3C2=O)cc1 (relative stereo) | 90 to 92
18 | COC(=O)CC1(CC(=O)N2CCN(C(=O)CC3=C(C(=O)OC)[C@H](c4c(Cl)cccc4Cl)C(C(=O)OC)=C(C[S@](=O)c4ccccc4)N3)CC2)CCCC1 | 100 to 104
19 | N#Cc1cc(C=O)cc(O)c1O | 210 to 215
20 | CCCCNc1c(C(=O)OCC)cnc2c1cnn2CC | 82 to 83
21 | COC(=O)C1=C(C)NC(C)=C(C(=O)OCCN(C)Cc2ccccc2)C1c1cc([N+](=O)[O-])ccn1 (centres undefined) | 163
22 | COc1ccc(OC)c(-c2cn(N=Cc3ccccc3)c(N)n2)c1 | 180 to 181

Row | SMILES | melting point [°C]
23 | O=C(Nc1ccccc1)Nc1ccc(-c2ccc(C(=O)N3CCN4CCC3CC4)o2)cc1 | 125 to 130
24 | Cc1sc(-c2nccs2)c2c1C(=O)CC(C)(C)C2 | 98 to 100
25 | CNC1(c2cccs2)CCC(=O)CC1 | 72 to 74
26 | CC(=O)N[C@H]1c2cc(C#N)ccc2OC(C)(C)[C@H]1O (relative stereo) | 193 to 194
27 | O=Cc1cccc(OCC(O)CN2C(=O)c3ccccc3C2=O)c1 (centres undefined) | 122 to 126
28 | Cc1nc2[nH]c(=O)ccc2c(C)c1C | 170 to 175
29 | Cc1nc(-c2ccc(C(F)(F)F)cc2)sc1CSc1ccc(OCC(=O)O)c2c1CCCC2 | 166 to 167
30 | CC(C)(C)c1ccc(/C=N/OCCOc2ccc(C(=O)O)c(OC(=O)c3ccc(C(C)(C)C)cc3)c2)cc1 | 148 to 150
31 | CCn1c(=O)c2nc(C=O)cn2c2ccccc21 | 302 to 306
32 | CCN(CC)CCOc1ccc2cc3ccc(OCCN(CC)CC)c(Cl)c3nc2c1Cl | 83 to 84
33 | CC1(O)CC(=O)OC(CCc2ccc(OCc3ccccc3)cc2)C1 (centres undefined) | 82 to 85
34 | CC(=O)Cc1ccc(Oc2ccc(C(F)(F)F)cc2)cc1 | 88 to 90
35 | O=C(Nc1c(Cl)ccc2nc(N3CCNCC3)ccc12)C1(C2CCCCC2)CC1 | 219
36 | Cc1c(C)c2c(c(C)c1NC(=O)CC(C)(C)C)C(c1ccc(C(C)O)cc1)CO2 (centres undefined) | 144 to 145
37 | CC(C)=NOCc1nc2c(N)nc(C)c(C)c2n1CCCCNC(=O)C(C)C | 180 to 181
38 | CCOC(=O)c1ccc(C(F)(F)F)cc1SC | 44 to 45
39 | CCc1nc2c(C)cc(C)nc2n1Cc1ccc(C(c2ccc(C)cc2)C(C(=O)O)C(=O)O)cc1 (centres undefined) | 140 to 141
40 | COC(=O)c1ccc(-c2ccc(-c3ccc4c(c3)C(C)(C)CCC4(C)C)n2C)cc1 | 104 to 105
41 | O=C(O)c1ccc(C=C2CCc3cc(OCCn4ccnc4)ccc3C2=O)cc1 | 267 to 268
42 | O=C(CN1CCC(Cc2ccccc2)CC1)Nc1ccc2[nH]c(=O)[nH]c2c1 | 270
43 | COc1ccc([N+](=O)[O-])c(N(C)C(=O)OC(C)(C)C)c1 | 122 to 124

The remaining lines, values ahead:

Row | melting point [°C] | SMILES
44 | 244 to 246 | CC(C)Cn1cnc2c(N)nc3ccc(-c4cccnc4)cc3c21
45 | 194 | CC(C)(C)C(=O)N[C@H]1CC[C@H](CCN2CCN(c3nccc4c3OCC4)CC2)CC1
46 | 121 to 123 | CC1CCC(C)(C)C2=C1CC(O)C(C)(O)C2 (centres undefined)
47 | 109 to 111 | CCOC(=O)CC(c1ccccc1)c1ccc(NC(=O)NCCCl)cc1 (centres undefined)
48 | 124 to 125 | Oc1ccc(CCNCC(O)c2ccc(OCc3ccccc3)cc2)cc1OCc1ccccc1 (centres undefined)
49 | 173 to 174 | O=C(O)c1cccc(-c2ccc3c(c2)C(Oc2ccc(Cl)cc2Cl)CC3)c1 (centres undefined)
50 | 254 to 256 | CCn1c(=O)c(-c2ccc3ccccc3c2)cc2cnc(Nc3ccccc3)nc21
51 | 124 to 126 | Cc1cc(Sc2ccc([N+](=O)[O-])cc2)cc(Br)n1
52 | 245 to 247 | CC1CCn2c(nc(-c3ccncc3)cc2=O)N1 (centres undefined)
53 | 139 to 140 | Nc1ccc(C(O)c2ccccn2)cc1 (centres undefined)
54 | 138 to 140 | CSC1=Nc2cccnc2Nc2cscc21
55 | 56 to 57 | CCCCCCCCCCCCNC(=O)n1nc(Oc2ncc(C(F)(F)F)cc2Cl)cc1C
56 | 166 to 168 | Cn1c(Cl)c(C=O)c2ccc(Cl)cc21
57 | 86.8 to 87.4 | COc1ccc(-c2cc(=O)n(CC(C)C)nc2-c2ccc(OC)c(F)c2)cc1
58 | 134 to 136 | CCCCn1c(CCC)cc(=O)c(C(=O)Nc2ccccc2)c1CCC
59 | 91 to 92 | CCc1cc(NC(C)=O)c(C=O)c(CC)n1
60 | 228 to 229 | O=C(O)C1=Cc2cc(Cl)cc(Br)c2OC1C(F)(F)F (centres undefined)
61 | 220 | COc1cc(-c2oc3ccc(CC(=O)NC(CC(C)C)C(N)=O)cc3c2SC)ccc1O (centres undefined)
62 | 165 to 166 | Cc1cccc(-c2ccnc3c(C(=O)N=CN(C)C)cnn23)c1

Row | melting point [°C] | SMILES
63 | 198 to 199 | COc1c(F)cc2c(c1-c1ccc(C[C@H](NC(=O)c3c(Cl)cccc3Cl)C(=O)O)cc1)OCO2
64 | 170 to 172 | CCN(CC)CCC(=O)C1Nc2cnccc2N(C)n2cccc21 (centres undefined)
65 | 172 to 175 | Cn1cc(CO)c(=O)c2ccc(C(F)(F)F)cc21
66 | 137 to 138 | COCCCN1C(=O)CC(=O)Nc2ccccc21
67 | 195 to 196 | CCCn1cc(C(=O)OCC)c(=O)c2cc(CN3CCOCC3)oc21
68 | 81 to 83 | COC(=O)COc1ccc(C(=O)C(C)N2CCN(c3ccncc3)CC2)cc1 (racemic)
69 | 195 to 197 | COc1ccc(N2CCN(Cc3n[nH]c4c(F)c(F)ccc34)CC2)cc1
70 | 160 | CC(O)C1CCC2C3CC=C4CC(N)CCC4(C)C3CCC12C (centres undefined)
71 | 196 | O=C1CN(C(=O)C(Cl)Cl)N(Cc2ccc(Cl)c(Cl)c2)C(=O)N1
72 | 241 to 242 | COc1cc2ncnc(NS(=O)(=O)c3ccc(Br)cc3)c2cc1OC
73 | 121 to 124 | CCCN(O)CCc1ccc2c(c1)C(=O)c1ccccc1CO2
74 | 210 to 212 | CS(=O)(=O)c1cccc(NC(=O)c2ccccc2O)c1
75 | 273 to 274 | CCCOc1ccccc1-c1nc2nc(NC(C)=O)ncc2c(=O)[nH]1
76 | 117 to 119 | CCN(CC)C(=O)/C=C(\C)c1ccc(OC(C)c2ccccc2)c(OC(C)(C)C(=O)O)c1 (centres undefined)
77 | 148 to 151 | COc1cc2c(Nc3ccc(Oc4ccccc4)cc3)c(C#N)cnc2cc1OCCCl
78 | 102 to 104 | Oc1ccc(C(=C2CCCCCC2)c2ccc(Br)cc2)cc1F
79 | 258 to 260 | O=c1nc(-c2cccc(CC(O)=S)n2)sc2ccccc12
80 | 201 | O=C(O)CN(CC(=O)O)CC(=O)Nc1cc(C(F)(F)F)cc(C(F)(F)F)c1
81 | 150 to 152 | OCc1cccc(-c2ccc3nc(-c4coc5ccccc45)cn3c2)c1

Row | melting point [°C] | SMILES
82 | 135 to 137 | CCOC(=O)C(C)(C)NC(=O)c1c(Cl)c2cc(Oc3ccc(C(F)(F)F)cc3)ccc2n1-c1ccc(OC(C)C)cc1
83 | 209 | Cc1oncc1-c1cncc(OC2SCC(O)C(O)C2O)c1 (centres undefined)
84 | 102 to 104 | CCOC(=O)C(C)(C(=O)OCC)c1cccc(C(=O)c2ccccc2)c1[N+](=O)[O-]
85 | 40 to 45 | COc1ccc(C2=NN(c3ccc(OCCBr)cc3)C(=O)[C@@H]3CC=CC[C@H]23)cc1OC
86 | 241 to 242 | C/N=C1\N(C)C(=O)C(=Cc2c[nH]c3ccccc23)N1C
87 | 89 to 90 | CCOc1ccc2c(C)c(CCCl)c(=O)oc2c1OCC
88 | 178 to 180 | COc1ccc2c(c1)CN(Cc1c[nH]c3ccccc13)C2
89 | 256 | O=C(O)c1c2n(c3cc(N4CCN(CCO)CC4)c(F)cc3c1=O)CCS2
90 | 147 | CCNc1nc(Cl)c(SC)c(Cl)n1
91 | 242 to 243 | Cn1c(=O)c(C(=O)O)c(-c2ccccc2)c2cc(Cl)ccc21
92 | 80 to 88 | O=C(NC(c1ccccc1)c1ccccc1)NS(=O)(=O)Cl
93 | 74 to 75.5 | COc1ccc2sc(C(=O)OCC(C)(C)C(=O)C(C)(C)C)cc2c1
94 | 59.5 to 61.5 | O=S(=O)(F)Cc1ccc(F)c(Oc2ccccc2)c1
95 | 200 to 202 | CC(CO)(CO)NCc1cc2c3ccccc3ccc2c2ccccc12
96 | 58 to 59 | CCc1coc(Cc2ccc([N+](=O)[O-])cc2)n1
97 | 198 to 202 | O=C(Cn1c(-c2ccccc2)ncc(NC(=O)OCc2ccccc2)c1=O)NC(Cc1ccccc1)C(O)C(F)(F)F (centres undefined)
98 | 177 to 180 | CS(=O)(=O)Nc1ccc2c(c1)S(=O)(=O)NC1CCCN21 (centres undefined)
99 | 190 | NCC=Cc1ccc(NC(=O)c2ccccc2-c2ccc(C(F)(F)F)cc2)cc1
